In patent US9113629B2, “4-amino-6-(4-substituted-phenyl)-picolinates and 6-amino-2-(4-substituted-phenyl)-pyrimidine-4-carboxylates and their use as herbicides” (DOW AGROSCIENCES LLC, priority 2013, dated 2015):
Like-named read-outs stand apart in the source and are kept apart here.

What was measured:
[1] = system: Key Broadleaf Weed and Crop Species; experiment: Post-emergent Test II herbicidal activity (Table 5); format: in vivo; conditions: post-emergence, 336 h, 14 days after application; for pest or weed control at 70 g/ha: application rate 70 g ai/ha; for pest or weed control at 140 g/ha: application rate 140 g ai/ha
Method in brief: (§1)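 Spray rates: a highest rate plus ½×, ¼×, ⅛×, 1/16×, all delivered at 187 L/ha to plants at the first–second true leaf stage. Readout is a visual percent injury score at 14 d, where 100 means complete kill.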

[2] = system: Key Grass and Sedge Weeds as well as Grass Crops; experiment: Post-emergent Test II herbicidal activity (Table 6); format: in vivo; conditions: post-emergence, 336 h; for pest or weed control at 140 g/ha: 140 g ai/ha; for pest or weed control at 70 g/ha: 70 g ai/ha
Method in brief: as §1

[3] = ABUTH: velvetleaf (Abutilon theophrasti), read-out: Visual Growth Reduction (%) 14 Days After Application, ABUTH
[4] = AMARE: redroot pigweed (Amaranthus retroflexus), read-out: Visual Growth Reduction (%) 14 Days After Application, AMARE
[5] = BRSNN: oilseed-rape, canola (Brassica napus), read-out: Visual Growth Reduction (%) 14 Days After Application, BRSNN
[6] = CHEAL: lambsquarters (Chenopodium album), read-out: Visual Growth Reduction (%) 14 Days After Application, CHEAL
[7] = EPHHL: wild poinsettia (Euphorbia heterophylla), read-out: Visual Growth Reduction (%) 14 Days After Application, EPHHL
[8] = HELAN: sunflower (Helianthus annuus), read-out: Visual Growth Reduction (%) 14 Days After Application, HELAN
[9] = VIOTR: wild pansy (Viola tricolor), read-out: Visual Growth Reduction (%) 14 Days After Application, VIOTR
[10] = CYPES: yellow nutsedge (Cyperus esculentus), read-out: Visual Growth Reduction (%) 14 Days After Application, CYPES
[11] = DIGSA: crabgrass (Digitaria sanguinalis), read-out: Visual Growth Reduction (%) 14 Days After Application, DIGSA
[12] = ECHCG: barnyardgrass (Echinochloa crus-galli), read-out: Visual Growth Reduction (%) 14 Days After Application, ECHCG
[13] = ORYSA: rice (Oryza sativa), crop, read-out: Visual Growth Reduction (%) 14 Days After Application, ORYSA
[14] = SETFA: giant foxtail (Setaria faberi), read-out: Visual Growth Reduction (%) 14 Days After Application, SETFA
[15] = SORVU: grain sorghum (Sorghum vulgare), read-out: Visual Growth Reduction (%) 14 Days After Application, SORVU
[16] = TRZSS (wheat, Triticum aestivum), crop, read-out: Visual Growth Reduction (%) 14 Days After Application, TRZSS
[17] = ZEAMX: maize, corn (Zea mays), crop, read-out: Visual Growth Reduction (%) 14 Days After Application, ZEAMX

**Q.** Which melting point does the source give for `COC(=O)c1nc(-c2ccc(I)c(F)c2F)c(F)c(N)c1Cl` [Compound 99] here?
**A.** The melting point was 168 to 170 °C.

**Q.** And the pest or weed control at 70 g/ha [1, 3]?
**A.** Its pest or weed control at 70 g/ha is 95 to 100%.

**Q.** What about the pest or weed control at 140 g/ha [1, 3] of the same compound?
**A.** Its pest or weed control at 140 g/ha is 95 to 100%.

**Q.** What about the pest or weed control at 70 g/ha [1, 4] of the same compound?
**A.** Its pest or weed control at 70 g/ha is 95 to 100%.

**Q.** What about the pest or weed control at 140 g/ha [1, 4] of the same compound?
**A.** Its pest or weed control at 140 g/ha is 95 to 100%.

**Q.** And the pest or weed control at 70 g/ha [1, 5]?
**A.** The pest or weed control at 70 g/ha was 95 to 100%.

**Q.** What about the pest or weed control at 140 g/ha [1, 5] of the same compound?
**A.** Its pest or weed control at 140 g/ha is 95 to 100%.

**Q.** And the pest or weed control at 70 g/ha [1, 6]?
**A.** Its pest or weed control at 70 g/ha is 95 to 100%.

**Q.** And the pest or weed control at 140 g/ha [1, 6]?
**A.** Its pest or weed control at 140 g/ha is 95 to 100%.

**Q.** What about the pest or weed control at 70 g/ha [1, 7] of the same compound?
**A.** The pest or weed control at 70 g/ha was 95 to 100%.

**Q.** What about the pest or weed control at 140 g/ha [1, 7] of the same compound?
**A.** The pest or weed control at 140 g/ha was 95 to 100%.

**Q.** And the pest or weed control at 70 g/ha [1, 8]?
**A.** Its pest or weed control at 70 g/ha is 95 to 100%.

**Q.** And the pest or weed control at 140 g/ha [1, 8]?
**A.** Its pest or weed control at 140 g/ha is 95 to 100%.

**Q.** What about the pest or weed control at 70 g/ha [1, 9] of the same compound?
**A.** Its pest or weed control at 70 g/ha is 95 to 100%.

**Q.** And the pest or weed control at 140 g/ha [1, 9]?
**A.** Its pest or weed control at 140 g/ha is 95 to 100%.

**Q.** What about the pest or weed control at 140 g/ha [2, 10] of the same compound?
**A.** The pest or weed control at 140 g/ha was 95 to 100%.

**Q.** What about the pest or weed control at 70 g/ha [2, 11] of the same compound?
**A.** The pest or weed control at 70 g/ha was 75 to 84%.

**Q.** What about the pest or weed control at 140 g/ha [2, 11] of the same compound?
**A.** The pest or weed control at 140 g/ha was 85 to 94%.

**Q.** And the pest or weed control at 70 g/ha [2, 12]?
**A.** The pest or weed control at 70 g/ha was 95 to 100%.

**Q.** What about the pest or weed control at 140 g/ha [2, 12] of the same compound?
**A.** The pest or weed control at 140 g/ha was 95 to 100%.

**Q.** What about the pest or weed control at 70 g/ha [2, 13] of the same compound?
**A.** Its pest or weed control at 70 g/ha is 0 to 29%.

**Q.** And the pest or weed control at 140 g/ha [2, 13]?
**A.** Its pest or weed control at 140 g/ha is 0 to 29%.

**Q.** And the pest or weed control at 70 g/ha [2, 14]?
**A.** The pest or weed control at 70 g/ha was 95 to 100%.

**Q.** And the pest or weed control at 140 g/ha [2, 14]?
**A.** Its pest or weed control at 140 g/ha is 95 to 100%.

**Q.** And the pest or weed control at 70 g/ha [2, 15]?
**A.** Its pest or weed control at 70 g/ha is 95 to 100%.

**Q.** And the pest or weed control at 140 g/ha [2, 15]?
**A.** Its pest or weed control at 140 g/ha is 95 to 100%.

**Q.** And the pest or weed control at 70 g/ha [2, 16]?
**A.** The pest or weed control at 70 g/ha was 45 to 59%.

**Q.** What about the pest or weed control at 140 g/ha [2, 16] of the same compound?
**A.** The pest or weed control at 140 g/ha was 60 to 74%.

**Q.** And the pest or weed control at 70 g/ha [2, 17]?
**A.** The pest or weed control at 70 g/ha was 95 to 100%.

**Q.** And the pest or weed control at 140 g/ha [2, 17]?
**A.** The pest or weed control at 140 g/ha was 95 to 100%.

**Q.** With `COC(=O)c1nc(-c2ccc(Br)cc2F)c(F)c(N)c1Cl` [Compound 52] as the compound, how does the melting point read?
**A.** Its melting point is 146 to 148 °C.

**Q.** What about the pest or weed control at 70 g/ha [1, 3] of the same compound?
**A.** The pest or weed control at 70 g/ha was 95 to 100%.

**Q.** And the pest or weed control at 140 g/ha [1, 3]?
**A.** The pest or weed control at 140 g/ha was 95 to 100%.

**Q.** What about the pest or weed control at 70 g/ha [1, 4] of the same compound?
**A.** The pest or weed control at 70 g/ha was 95 to 100%.

**Q.** What about the pest or weed control at 140 g/ha [1, 4] of the same compound?
**A.** The pest or weed control at 140 g/ha was 95 to 100%.

**Q.** And the pest or weed control at 70 g/ha [1, 5]?
**A.** The pest or weed control at 70 g/ha was 95 to 100%.

**Q.** What about the pest or weed control at 140 g/ha [1, 5] of the same compound?
**A.** Its pest or weed control at 140 g/ha is 95 to 100%.

**Q.** What about the pest or weed control at 70 g/ha [1, 6] of the same compound?
**A.** The pest or weed control at 70 g/ha was 95 to 100%.

**Q.** What about the pest or weed control at 140 g/ha [1, 6] of the same compound?
**A.** The pest or weed control at 140 g/ha was 95 to 100%.

**Q.** What about the pest or weed control at 70 g/ha [1, 7] of the same compound?
**A.** The pest or weed control at 70 g/ha was 95 to 100%.

**Q.** And the pest or weed control at 140 g/ha [1, 7]?
**A.** Its pest or weed control at 140 g/ha is 95 to 100%.

**Q.** What about the pest or weed control at 70 g/ha [1, 8] of the same compound?
**A.** The pest or weed control at 70 g/ha was 95 to 100%.

**Q.** What about the pest or weed control at 140 g/ha [1, 8] of the same compound?
**A.** The pest or weed control at 140 g/ha was 95 to 100%.

**Q.** And the pest or weed control at 70 g/ha [1, 9]?
**A.** Its pest or weed control at 70 g/ha is 95 to 100%.

**Q.** What about the pest or weed control at 140 g/ha [1, 9] of the same compound?
**A.** Its pest or weed control at 140 g/ha is 95 to 100%.

**Q.** What about the pest or weed control at 70 g/ha [2, 10] of the same compound?
**A.** The pest or weed control at 70 g/ha was 95 to 100%.

**Q.** What about the pest or weed control at 140 g/ha [2, 10] of the same compound?
**A.** The pest or weed control at 140 g/ha was 95 to 100%.

**Q.** And the pest or weed control at 70 g/ha [2, 11]?
**A.** Its pest or weed control at 70 g/ha is 85 to 94%.

**Q.** What about the pest or weed control at 140 g/ha [2, 11] of the same compound?
**A.** The pest or weed control at 140 g/ha was 85 to 94%.

**Q.** And the pest or weed control at 70 g/ha [2, 12]?
**A.** Its pest or weed control at 70 g/ha is 60 to 74%.

**Q.** And the pest or weed control at 140 g/ha [2, 12]?
**A.** The pest or weed control at 140 g/ha was 75 to 84%.

**Q.** And the pest or weed control at 70 g/ha [2, 13]?
**A.** The pest or weed control at 70 g/ha was 0 to 29%.

**Q.** And the pest or weed control at 140 g/ha [2, 13]?
**A.** The pest or weed control at 140 g/ha was 0 to 29%.

**Q.** And the pest or weed control at 140 g/ha [2, 14]?
**A.** Its pest or weed control at 140 g/ha is 85 to 94%.

**Q.** And the pest or weed control at 70 g/ha [2, 15]?
**A.** The pest or weed control at 70 g/ha was 95 to 100%.

**Q.** What about the pest or weed control at 140 g/ha [2, 15] of the same compound?
**A.** The pest or weed control at 140 g/ha was 95 to 100%.

**Q.** What about the pest or weed control at 70 g/ha [2, 16] of the same compound?
**A.** The pest or weed control at 70 g/ha was 30 to 44%.

**Q.** What about the pest or weed control at 140 g/ha [2, 16] of the same compound?
**A.** Its pest or weed control at 140 g/ha is 30 to 44%.

**Q.** What about the pest or weed control at 70 g/ha [2, 17] of the same compound?
**A.** The pest or weed control at 70 g/ha was 95 to 100%.

**Q.** And the pest or weed control at 140 g/ha [2, 17]?
**A.** The pest or weed control at 140 g/ha was 95 to 100%.
